For 37 compounds, IC50 results are on record in patent US9233979B2, “Compounds that are ERK inhibitors” (Merck Sharp & Dohme Corp., priority 2012, dated 2016).

For this experiment, the target named is phosphorylated active hERK2 enzyme (Homo sapiens (Human), UniProt P28482). As to the kind of experiment: Active Human ERK2 (hERK2) Activity Assay (IMAP-FP). The experiment is classed as biochemical. Particulars: Table 6, 0.5 nM hERK2, 30 μM ATP, 10 point titration, read-out: AERK2 IC50. In a few lines: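 IMAP fluorescence-polarization kinase assay: 0.5 nM activated hERK2 with 900 nM unlabeled plus 80 nM labeled peptide and 30 μM ATP, reacted 60 min. Quenched with IMAP beads in binding buffer with 24 mM NaCl; FP read after 60 min equilibration.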
Sequence of phosphorylated active hERK2 enzyme (P28482 whole entry): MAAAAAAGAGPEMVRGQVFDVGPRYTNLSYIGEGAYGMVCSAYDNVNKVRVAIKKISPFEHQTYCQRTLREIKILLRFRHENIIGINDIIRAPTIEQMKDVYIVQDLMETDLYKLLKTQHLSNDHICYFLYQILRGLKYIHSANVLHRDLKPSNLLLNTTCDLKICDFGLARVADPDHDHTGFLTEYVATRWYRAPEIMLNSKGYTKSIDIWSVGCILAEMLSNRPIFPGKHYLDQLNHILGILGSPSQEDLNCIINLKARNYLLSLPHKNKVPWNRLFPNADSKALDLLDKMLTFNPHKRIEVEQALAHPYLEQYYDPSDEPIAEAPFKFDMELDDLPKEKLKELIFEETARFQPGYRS

A word on the IC50: it is the point on the concentration scale where inhibition reaches its midpoint. Take `C[C@@H](NC(=O)Nc1cc2[nH]nc(NC(=O)C3CCCCC3)c2cn1)c1ccccc1` [Example 204, N-[6-({[(1R)-1-phenylethyl]-carbamoyl}amino)-1H-pyrazolo[4,3-c]pyridin-3-yl]-cyclohexane-carboxamide]: the IC50 came to 5.9 nM.

On to `C[C@@H](NC(=O)Nc1cc2[nH]nc(NC(=O)C3CCCC3)c2cn1)c1ccccc1` [Example 205, N-[6-({[(1R)-1-phenylethyl]-carbamoyl}amino)-1H-pyrazolo[4,3-c]pyridin-3-yl]-cyclopentane-carboxamide], for which the 50% inhibitory concentration (IC50) was found to be 1.2 nM.

Regarding `C[C@@H](NC(=O)Nc1cc2[nH]nc(NC(=O)Cc3ccc(F)cc3)c2cn1)c1ccccc1` [Example 206, 2-(4-fluorophenyl)-N-[6-({[(1R)-1-phenylethyl]-carbamoyl}amino)-1H-pyrazolo[4,3-c]pyridin-3-yl]-acetamide], the IC50 worked out at 0.5 nM.

As for `C[C@@H](NC(=O)Nc1cc2[nH]nc(NC(=O)c3ccco3)c2cn1)c1ccccc1` [Example 207, N-[6-({[(1R)-1-phenylethyl]-carbamoyl}amino)-1H-pyrazolo[4,3-c]pyridin-3-yl]-furan-2-carboxamide], the IC50 came out at 4.6 nM.

Consider `C[C@@H](NC(=O)Nc1cc2[nH]nc(NC(=O)CN(C)C)c2cn1)c1ccccc1` [Example 208], for which the IC50 was 27.8 nM.

Regarding `CC(C)CC(=O)Nc1n[nH]c2cc(NC(=O)N[C@H](C)c3ccccc3)ncc12` [Example 209, 3-methyl-N-[6-({[(1R)-1-phenylethyl]-carbamoyl}amino)-1H-pyrazolo[4,3-c]pyridin-3-yl]-butanamide], the IC50 is 1.6 nM.

In the case of `C[C@@H](NC(=O)Nc1cc2[nH]nc(NC(=O)CC3CCCC3)c2cn1)c1ccccc1` [Example 210, 2-cyclopentyl-N-[6-({[(1R)-1-phenylethyl]-carbamoyl}amino)-1H-pyrazolo[4,3-c]pyridin-3-yl]-acetamide], the half-inhibitory concentration (IC50) was found to be 2.8 nM.

In the case of `C[C@@H](NC(=O)Nc1cc2[nH]nc(NC(=O)c3cccnc3)c2cn1)c1ccccc1` [Example 211, N-[6-({[(1R)-1-phenylethyl]-carbamoyl}amino)-1H-pyrazolo[4,3-c]pyridin-3-yl]-pyridine-3-carboxamide], the IC50 turned out to be 3.1 nM.

As to `C[C@@H](NC(=O)Nc1cc2[nH]nc(NC(=O)c3ccccn3)c2cn1)c1ccccc1` [Example 212, N-[6-({[(1R)-1-phenylethyl]-carbamoyl}amino)-1H-pyrazolo[4,3-c]pyridin-3-yl]-pyridine-2-carboxamide], the IC50 came out at 11.7 nM.

With `C[C@@H](NC(=O)Nc1cc2[nH]nc(NCC3CCC3)c2cn1)c1ccccc1` [Example 213, 1-{3-[(cyclobutylmethyl)amino]-1H-pyrazolo[4,3-c]-pyridin-6-yl}-3-[(1R)-1-phenylethyl]urea], the IC50 was 2.2 nM.

As to `C[C@@H](NC(=O)Nc1cc2[nH]nc(NC(=O)c3ccncc3)c2cn1)c1ccccc1` [Example 214, N-[6-({[(1R)-1-phenylethyl]-carbamoyl}amino)-1H-pyrazolo[4,3-c]pyridin-3-yl]-pyridine-4-carboxamide], the IC50 stood at 2.9 nM.

In the case of `C[C@@H](NC(=O)Nc1cc2[nH]nc(NC(=O)C(C)(C)C)c2cn1)c1ccccc1` [Example 215, 2,2-dimethyl-N-[6-({[(1R)-1-phenylethyl]-carbamoyl}amino)-1H-pyrazolo[4,3-c]pyridin-3-yl]-propanamide], the IC50 is 3.9 nM.

Take `C[C@@H](NC(=O)Nc1cc2[nH]nc(NC3CC(N)C3)c2cn1)c1ccccc1` (stereo partly drawn) [Example 216, 1-{3-[(3-amino-cyclobutyl)amino]-1H-pyrazolo[4,3-c]pyridin-6-yl}-3-[(1R)-1-phenylethyl]urea]: the IC50 worked out at 12 nM.

Consider `C[C@@H](NC(=O)Nc1cc2[nH]nc(NC(=O)OC(C)(C)C)c2cn1)c1ccccc1` [Example 217, tert-butyl [6-({[(1R)-1-phenylethyl}-carbamoyl}amino)-1H-pyrazolo[4,3-c]pyridin-3-yl}-carbamate], for which the IC50 turned out to be 47.7 nM.

`CC(C)NC(=O)Nc1n[nH]c2cc(NC(=O)N[C@H](C)c3ccccc3)ncc12` [Example 218, 1-(1-methylethyl)-3-[6-({[(1R)-1-phenylethyl]-carbamoyl}amino)-1H-pyrazolo[4,3-c]pyridin-3-yl]urea]: the IC50 is 25.1 nM.

`CC(C)COC(=O)Nc1n[nH]c2cc(NC(=O)N[C@H](C)c3ccccc3)ncc12` [Example 219, 2-methylpropyl [6-({[(1R)-1-phenylethyl}-carbamoyl}amino)-1H-pyrazolo[4,3-c]pyridin-3-yl]-carbamate]: the IC50 came out at 32.5 nM.

Take `COC(=O)Nc1n[nH]c2cc(NC(=O)N[C@H](C)c3ccccc3)ncc12` [Example 220, (R)-methyl (6-(3-(1-phenylethyl)ureido)-1H-pyrazolo[4,3-c]pyridin-3-yl)carbamate]: the IC50 turned out to be 354 nM.

As for `COCCOC(=O)Nc1n[nH]c2cc(NC(=O)N[C@H](C)c3ccccc3)ncc12` [Example 221, 2-methoxyethyl [6-({[(1R)-1-phenyl-ethyl]carbamoyl}-amino)-1H-pyrazolo[4,3-c]-pyridin-3-yl]-carbamate], the half-inhibitory concentration (IC50) is 6.6 nM.

For the compound `C[C@@H](NC(=O)Nc1cc2[nH]nc(NC(=O)Oc3ccccc3)c2cn1)c1ccccc1` [Example 222, phenyl[6-({[(1R)-1-phenylethyl]-carbamoyl}amino)-1H-pyrazolo[4,3-c]pyridin-3-yl]-carbamate], the IC50 was 3.6 nM.

In the case of `CC(C)OC(=O)Nc1n[nH]c2cc(NC(=O)N[C@H](C)c3ccccc3)ncc12` [Example 223, 1-methylethyl[6-({[(1R)-1-phenylethyl]-carbamoyl}amino)-1H-pyrazolo[4,3-c]pyridin-3-yl]-carbamate], the 50% inhibitory concentration (IC50) stood at 12.4 nM.

For `C[C@@H](NC(=O)Nc1cc2[nH]nc(NC(=O)OCC(C)(C)C)c2cn1)c1ccccc1` [Example 224, 2,2-dimethylpropyl [6-({[(1R)-1-phenylethyl]-carbamoyl}amino)-1H-pyrazolo[4,3-c]pyridin-3-yl]-carbamate], the IC50 stood at 355 nM.

Take `C[C@@H](NC(=O)Nc1cc2[nH]nc(NC(=O)OCc3ccccc3)c2cn1)c1ccccc1` [Example 225, benzyl [6-({[(1R)-1-phenylethyl]-carbamoyl}amino)-1H-pyrazolo[4,3-c]pyridin-3-yl]-carbamate]: the IC50 came out at 39.8 nM.

`CCNc1n[nH]c2cc(NC(=O)NCC(C)c3ccccc3)ncc12` (stereo not shown) [Example 226, 1-[3-(ethylamino)-1H-pyrazolo[4,3-c]pyridin-6-yl]-3-(2-phenylpropyl)-urea]: the IC50 amounted to 17 nM.

`CCNc1n[nH]c2cc(NC(=O)NCc3c(C)cccc3Cl)ncc12` [Example 227, 1-(2-chloro-6-methylbenzyl)-3-[3-(ethylamino)-1H-pyrazolo[4,3-c]pyridin-6-yl]urea]: the IC50 was 11.3 nM.

With `CCNc1n[nH]c2cc(NC(=O)NCc3ccccc3OC(F)F)ncc12` [Example 228, 1-[2-(difluoro-methoxy)benzyl]-3-[3-(ethylamino)-1H-pyrazolo[4,3-c]pyridin-6-yl]urea], the IC50 stood at 3.5 nM.

`CCNc1n[nH]c2cc(NC(=O)N[C@H](C)C3CCCCC3)ncc12` [Example 230, 1-[(1R)-1-cyclohexylethyl]-3-[3-(ethylamino)-1H-pyrazolo[4,3-c]pyridin-6-yl]urea]: the IC50 stood at 11.7 nM.

`CCNc1n[nH]c2cc(NC(=O)NCc3cnsn3)ncc12` [Example 231, 1-[3-(ethylamino)-1H-pyrazolo[4,3-c]pyridin-6-yl]-3-(1,2,5-thiadiazol-3-ylmethyl)urea]: the IC50 was 57 nM.

With `CCNc1n[nH]c2cc(NC(=O)NC3CNc4ccccc4C3)ncc12` (stereo not shown) [Example 232, 1-[3-(ethylamino)-1H-pyrazolo[4,3-c]pyridin-6-yl]-3-(1,2,3,4-tetrahydro-quinolin-3-yl)urea], the 50% inhibitory concentration (IC50) came out at 18.6 nM.

For `CCNc1n[nH]c2cc(NC(=O)NC3COc4ccccc4C3)ncc12` (stereo not shown) [Example 233, 1-(3,4-dihydro-2H-chromen-3-yl)-3-[3-(ethylamino)-1H-pyrazolo[4,3-c]pyridin-6-yl]urea], the IC50 was 28 nM.

As for `CCNc1n[nH]c2cc(NC(=O)N[C@@H]3CCOc4ccccc43)ncc12` [Example 234, 1-[(4R)-3,4-dihydro-2H-chromen-4-yl]-3-[3-(ethylamino)-1H-pyrazolo[4,3-c]pyridin-6-yl]urea], the IC50 was 52 nM.

Consider `CCNc1n[nH]c2cc(NC(=O)NC3COc4ccccc43)ncc12` (stereo not shown) [Example 235, 1-(2,3-dihydro-1-benzofuran-3-yl)-3-[3-(ethylamino)-1H-pyrazolo[4,3-c]pyridin-6-yl]urea], for which the concentration for half-maximal inhibition (IC50) was 334 nM.

As to `CCNc1n[nH]c2cc(NC(=O)N[C@@H](c3ccccc3)C3(O)CCCC3)ncc12` [Example 236, 1-[3-(ethylamino)-1H-pyrazolo[4,3-c]pyridin-6-yl]-3-[(S)-(1-hydroxy-cyclopentyl)-(phenyl)methyl]-urea], the IC50 came to 0.7 nM.

As for `CCNc1n[nH]c2cc(NC(=O)NC3CCCC3c3ccccc3)ncc12` (stereo not shown) [Example 237, 1-[3-(ethylamino)-1H-pyrazolo[4,3-c]pyridin-6-yl]-3-(2-phenyl-cyclopentyl)urea], the IC50 turned out to be 8.3 nM.

In the case of `CCNc1n[nH]c2cc(NC(=O)NCc3cccnc3OCC)ncc12` [Example 238, 1-[(2-ethoxy-pyridin-3-yl)-methyl]-3-[3-(ethylamino)-1H-pyrazolo[4,3-c]pyridin-6-yl]urea], the IC50 was found to be 9.6 nM.

Turning to `CCNc1n[nH]c2cc(NC(=O)N[C@@H](CN(C)C)c3ccccc3)ncc12` [Example 239, 1-[(1R)-2-(dimethylamino)-1-phenylethyl]-3-[3-(ethylamino)-1H-pyrazolo[4,3-c]pyridin-6-yl]urea], the IC50 was determined as 27.4 nM.

For `CCNc1n[nH]c2cc(NC(=O)NCc3ccc(F)c(Cl)c3)ncc12` [Example 240, 1-(3-chloro-4-fluorobenzyl)-3-[3-(ethylamino)-1H-pyrazolo[4,3-c]-pyridin-6-yl]urea], the IC50 is 14.7 nM.

For `CCNc1n[nH]c2cc(NC(=O)NCc3cccc(F)c3)ncc12` [Example 241, 1-[3-(ethylamino)-1H-pyrazolo[4,3-c]pyridin-6-yl]-3-(3-fluorobenzyl)-urea], the IC50 amounted to 11.8 nM.
